Data from PubChem BioAssay (NCI).
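Briefly, cells in 96-well plates were exposed to five compound concentrations for 48 h, and endpoints were estimated by linear interpolation. GI50 is the concentration that inhibits growth by half. Definition used: TGI = concentration required for complete inhibition of growth.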

Key:
Assay in all cases: DTP human tumour cell line panel, 48 h; in the data active means GI50 below about 0.43 µM; inactive means the rest
[1] = test system: 786-0 renal
[2] = test system: A498 renal
[3] = test system: A549 NSCLC
[4] = test system: ACHN renal
[5] = test system: BT-549 breast
[6] = test system: CAKI-1 renal
[7] = test system: COLO 205 colon
[8] = test system: DU-145 prostate
[9] = test system: HCC-2998 colon
[10] = test system: HCT-116 colon
[11] = test system: HCT-15 colon
[12] = test system: HL-60(TB) leukemia
[13] = test system: HOP-62 NSCLC
[14] = test system: HOP-92 NSCLC
[15] = test system: HS 578T breast
[16] = test system: HT29 colon
[17] = test system: IGROV1 ovarian
[18] = test system: K-562 leukemia
[19] = test system: KM12 colon
[20] = test system: M14 melanoma
[21] = test system: MALME-3M melanoma
[22] = test system: MCF7 breast
[23] = test system: MDA-MB-231 breast
[24] = test system: MDA-MB-435
[25] = test system: NCI-H226 lung
[26] = test system: NCI-H23 lung
[27] = test system: NCI-H460 lung
[28] = test system: NCI-H522 lung
[29] = test system: NCI/ADR-RES ovarian
[30] = test system: OVCAR-3 ovarian
[31] = test system: OVCAR-4 ovarian
[32] = test system: OVCAR-5 ovarian
[33] = test system: PC-3 prostate
[34] = test system: RPMI-8226 leukemia
[35] = test system: RXF 393 renal
[36] = test system: SF-268 CNS
[37] = test system: SF-295 CNS
[38] = test system: SF-539 CNS
[39] = test system: SK-MEL-2 melanoma
[40] = test system: SK-MEL-28 melanoma
[41] = test system: SK-MEL-5 melanoma
[42] = test system: SK-OV-3 ovarian
[43] = test system: SN12C renal
[44] = test system: SNB-19 CNS
[45] = test system: SNB-75 CNS
[46] = test system: SR leukemia
[47] = test system: SW-620 colon
[48] = test system: T-47D breast
[49] = test system: TK-10 renal
[50] = test system: U251 CNS
[51] = test system: UACC-257 melanoma
[52] = test system: UACC-62 melanoma
[53] = test system: UO-31 renal

CC(=O)Oc1cc(C(C)C)c(OCCN(C)C)cc1C
> 100 µM: TGI [1] | TGI [2] | TGI [3] | TGI [4] | TGI [5] | TGI [6] | TGI [7] | TGI [8] | TGI [9] | TGI [10] | TGI [11] | TGI [12] | TGI [13] | TGI [14] | TGI [15] | TGI [16] | TGI [17] | TGI [18] | TGI [19] | TGI [20] | TGI [21] | TGI [22] | TGI [23] | TGI [24] | TGI [25] | TGI [26] | TGI [27] | TGI [28] | TGI [29] | TGI [30] | TGI [31] | TGI [32] | TGI [33] | TGI [34] | TGI [35] | TGI [36] | TGI [37] | TGI [38] | TGI [39] | TGI [40] | TGI [41] | TGI [42] | TGI [43] | TGI [44] | TGI [45] | TGI [46] | TGI [47] | TGI [48] | TGI [49] | TGI [50] | TGI [51] | TGI [52] | TGI [53]
inactive: GI50 [1] > 100 µM | GI50 [2] > 100 µM | GI50 [3] > 100 µM | GI50 [4] > 100 µM | GI50 [5] > 100 µM | GI50 [6] > 100 µM | GI50 [7] > 100 µM | GI50 [8] > 100 µM | GI50 [9] > 100 µM | GI50 [10] > 100 µM | GI50 [11] > 100 µM | GI50 [12] > 100 µM | GI50 [13] > 100 µM | GI50 [14] > 100 µM | GI50 [15] > 100 µM | GI50 [16] > 100 µM | GI50 [17] > 100 µM | GI50 [18] > 100 µM | GI50 [19] > 100 µM | GI50 [20] > 100 µM | GI50 [21] > 100 µM | GI50 [22] > 100 µM | GI50 [23] > 100 µM | GI50 [24] > 100 µM | GI50 [25] > 100 µM | GI50 [26] > 100 µM | GI50 [27] > 100 µM | GI50 [28] > 100 µM | GI50 [29] > 100 µM | GI50 [30] > 100 µM | GI50 [31] > 100 µM | GI50 [32] > 100 µM | GI50 [33] > 100 µM | GI50 [34] > 100 µM | GI50 [35] > 100 µM | GI50 [36] > 100 µM | GI50 [37] > 100 µM | GI50 [38] > 100 µM | GI50 [39] > 100 µM | GI50 [40] > 100 µM | GI50 [41] > 100 µM | GI50 [42] > 100 µM | GI50 [43] > 100 µM | GI50 [44] > 100 µM | GI50 [45] 50.9 µM | GI50 [46] > 100 µM | GI50 [47] > 100 µM | GI50 [48] > 100 µM | GI50 [49] > 100 µM | GI50 [50] > 100 µM | GI50 [51] > 100 µM | GI50 [52] > 100 µM | GI50 [53] > 100 µM
